# From patent publication US20230137092A1, “Composition and Method for the Treatment and Prevention of Cardiac, Pulmonary, Dermal, and Renal Fibrosis” (EMERALD HEALTH PHARMACEUTICALS INC., priority 2020, published 2023)
# Key:
# [1] = tested on: Ang II-induced cardiac fibrosis; test: Ang II-induced cardiac fibrosis, preventive model: collagen by Sirius red/fast green in left ventricle; assay type: in vivo, mouse; settings: vs Ang II group
# Procedure: Ang II causes myocardial fibrosis in a short period of time (Sopel M et al., 2011, Lab. Invest., 91:565-578) characterized by collagen accumulation and after 14 days of Ang II infusion (Sigusch H H et al., 1996, Cardiovascular Research, 31:546-554). […] Subcutaneous infusion of Ang II using ALZET® osmotic pumps was used to study compound preventive effects. ALZET® osmotic minipumps (Model #2004, Charles Rives, Barcelona, Spain) delivering of Ang II (1.0 mg kg^− min^−) (Sigma-Aldrich, Madrid, Spain) for two weeks. Compound treatment was daily administered in parallel, one day before of the implantation of the subcutaneous pump, beneath the mid scapular loose skin and consisted of daily oral gavage of compound (20 mg/kg) or vehicle (Corn Oil/Maisine CC, 1/1). Mice were acclimated to manipulators for a week previously to the experiments in order to reduce stress and allow the detection of subtle changes in behavior by researchers. […]
# Interstitial heart fibrosis was determined by the measurement of Sirius red/fast green staining (collagen content) (FIG. 1A). […]
# Mice treated with Ang II presented an increase in the thickness of aortic media layer by collagen accumulation. […] Three-four random fields of each heart were photographed by standard brightfield microscopy and digitalized using a Leica DFC420c camera and analyzed using Fiji software (rsb.info.nih.gov/ij/).
# [2] = tested on: inflammatory and fibrotic marker mRNAs in heart; test: Real-time quantitative PCR of inflammatory and fibrotic markers in heart, Ang II preventive model; assay type: in vivo, mouse; settings: Ang II infused mice; 2-ΔΔCt method
# [3] = tested on: cardiac myofibroblast proliferation; test: Ki67 immunostaining of left ventricle sections (myofibroblast proliferation), Ang II preventive model; assay type: in vivo, mouse; settings: two weeks after Ang II infusion; ###p<0.001 versus Ang II group
# Procedure: Proliferation of fibroblast is an important event of Ang II-induced fibrosis and plays an important role in cardiac fibrosis. […] Ki 67 is a protein that is encoded by the MKI67 gene and is a cellular marker for proliferation. Cardiac tissue sections ([…]) were deparaffinized and boiled for 10 minutes in sodium citrate buffer (10 mM, pH 6.0) (Sigma-Aldrich, Madrid, Spain) for antigen retrieval. The sections were then incubated in a PBS washing buffer containing 0.1% Triton X-100 (Sigma-Aldrich, Madrid, Spain) three times for 10 minutes. Nonspecific binding was blocked with 3% bovine serum albumin (BSA) (Sigma-Aldrich, Madrid, Spain). The sections were incubated overnight at 4° C. with Ki 67 antibody (1:100 dilution, ab15580, Abcam, Cambridge, UK). After three washes for 10 minutes each in wash buffer, slides were incubated with secondary antibody anti-rabbit Texas Red (1:100 dilution, #A-6399, Thermo Fischer Scientific, Waltham, Mass., USA) for 1 hour at room temperature in the dark. […] All images were acquired using a spectral confocal laser-scanning microscope LSM710, (Zeiss, Jena, Germany) with a 63× Plan-Apochromat oil immersion lens and quantified in 10-15 randomly chosen fields using ImageJ software (rsb.info.nih.gov/ij/).
# [4] = tested on: Ang II-induced aortic fibrosis; test: Ang II therapeutic model: aorta adventitial collagen, Sirius red; assay type: in vivo, mouse; settings: Ang II four weeks, 20 mg/kg oral last two weeks, ###p<0.001 versus Ang II group
# Procedure: For the therapeutic model, infusion of Ang II for four weeks and the compound of Formula (VIII) (20 mg/kg) was administrated after two weeks of pump implantation. Subcutaneous infusion of Ang II using ALZET osmotic minipumps was used to study the preventive effects of the compound ALZET® osmotic minipumps (Model #2004, Charles Rives, Barcelona, Spain) delivering of Ang II (500 ng kg^−1 min^−1) (Sigma-Aldrich, Madrid, Spain) for four weeks. Compound treatment was daily administered in parallel, two weeks after the implantation of the subcutaneous pump, beneath the midscapular loose skin and consisted of daily oral gavage of compound of Formula (VIII) (20 mg/kg) or vehicle (Corn Oil/Maisine CC, 1/1). Mice were acclimated to manipulators for a week previously to the experiments in order to reduce stress and allow the detection of subtle changes in behavior by researchers. […] Neither piloerection nor hunched appearances were appreciated during the experimental procedures. Mice were sacrificed by cervical dislocation and the heart, aorta, kidney, and lung were removed and processed for histological examination or were frozen for further analysis.
# [5] = tested on: ERK1+2; test: Ang II-induced ERK1+2 phosphorylation in hICF, immunoblot; assay type: cell-based, human; settings: hICF preincubated with compound, Ang II for 30 minutes
# Procedure: The effect of compound of Formula (VIII) on Ang II signaling pathways in hICF was investigated. ERK1+2 and NFAT activation are two pathways activated by Ang-II (Wakatsuki et al., 2004, Trends Biochem Sci, 29:609-617). hICF were preincubated with compound of Formula (VIII), treated with Ang II for 30 minutes, washed with PBS and proteins extracted in 50 μL of lysis buffer (50 mM Tris-HCl pH 7.5, 150 mM NaCl, 1% (v/v) NP-40, 10% (v/v) glycerol, 10 mM NaF, 1 mM Na3VO4, aprotinin (10 μg/ml), leupeptine (10 μg/ml), pepstatin (1 μg/ml) and 1 mM PMSF saturated). Separated proteins in 10% SDS/PAGE gels were transferred to PVDF membranes and blocked in TBS solution containing 0.1% Tween 20 and 5% bovine serum albumin (BSA) for 1 hour at room temperature. Immunodetection of specific proteins was carried out by incubation with primary antibodies against p-ERK (1:1000; #4695 Cell Signaling Technology) and ERK (1:1000, M5670, Sigma). Membranes were incubated with horseradish peroxidase-conjugated secondary antibody was added and proteins detected by chemiluminescence system (GE Healthcare Europe GmbH). Compound of Formula (VIII) inhibited Ang II-induced ERK1+2 phosphorylation (FIG. 16B).
structure (smiles),measurement,setting,value
C=C(C)C1CCC(C)=C[C@H]1C1=C(O)C(=O)C(CCCCC)=C(NCc2ccccc2)C1=O (some centres unmarked) [Formula (VIII)],collagen content accumulation on interstitial area of left ventricle,"[1]; Ang II 1.0 mg kg^- min^- two weeks, 20 mg/kg daily oral gavage",significantly (p<0.001) reduced
same,perivascular collagen content (perivascular myocardial area),"[1]; Ang II two weeks, 20 mg/kg oral",significant reduction
same,IL1β expression level in left ventricle,[2],significantly reduced
same,IL6 expression level in left ventricle,[2],significantly reduced
same,TNC expression level in left ventricle,[2],significantly reduced
same,myofibroblast proliferation in left ventricle (Ki67-positive cells),[3],reduced
same,aorta collagen content in adventitial layer,[4],antifibrotic activity
same,Ang II-induced ERK1+2 phosphorylation,[5],inhibited
